Measured values published in patent US9932354B2, “Imidazo-oxadiazole and imidazo-thiadiazole derivatives” (Ares Trading S.A., priority 2012, dated 2018).

What was measured:
[1] = tested on: Amyloid-β peptide release (Aβ42), HEK cells overexpressing APP (HEK-APP); test: Amyloid-β peptide release (Aβ42) assay, AlphaLISA on supernatant of HEK-APP cells; format: cell-based; settings: Homo sapiens, HEK293, 24 h incubation with compound, read-out: Ab42 IC50 Ranges
Method: (§1) Amyloid-β Peptide Release (Aβ42 & AβTotal) Assay to Determine IC50 Values.
(§2) Compounds are dissolved in and diluted in 100% DMSO and incubated with HEK-APP cells for 24 h at 37° C. in 5% CO2. The supernatant from HEK-APP cells are mixed with antibodies: for Aβ42 detection: AlphaLISA Amyloid-β 1-42 Kit (Perkin Elmer AL203L) Anti-Amyloid β1-42-specific antibody acceptor beads, biotinylated anti-Amyloid-“β1-42” antibody and streptavidin (SA) donor beads diluted in AlphaLISA buffer (to the instructions of the supplier). For Aβ total detection: Custom Anti-Amyloid-βtotal acceptor beads (6E10 acceptor beads), biotinylated anti-Amyloid “β1-42” antibody (Perkin Elmer AL203L) and streptavidin (SA) donor beads diluted in AlphaLISA buffer (to the instructions of the supplier). After addition of supernatant to the antibody mix, the assay is incubated for 4.5 h. Amyloid-β peptide release (Aβ42 & AβTotal) is measured with a Pherastar FS (BMG) multimode reader using the alphascreen module.

[2] = tested on: Amyloid-β peptide release (AβTotal), HEK cells overexpressing APP (HEK-APP); test: Amyloid-β peptide release (AβTotal) assay, AlphaLISA on supernatant of HEK-APP cells; format: cell-based; settings: ratio Abtot vs Ab42, HEK-APP cells, 24 h
Method: as §1, §2

| Compound | IC50 [1] [µM] | Abtot/Ab42 selectivity ranges [2] |
| --- | --- | --- |
| Cc1ncc2oc(-c3ccc(Nc4ccn(Cc5ccc(Cl)c(Cl)c5)n4)cc3)nn12 [Example 30, [1-(3,4-Dichloro-benzyl)-1H-pyrazol-3-yl]-[4-(5-methyl-imidazo[5,1-b][1,2,4]oxadiazol-2-yl)-phenyl]-amine] | 1 to 2.2 | c (c: 50 fold > selectivity ≥ 10 fold) |
| COc1cc(NC(=O)Cc2cccc(C(F)(F)F)c2)ccc1-c1nn2c(C)ncc2o1 [Example 31, N-(3-methoxy-4-(5-methylimidazo[5,1-b][1,3,4]oxadiazol-2-yl)phenyl)-2-(3-(trifluoromethyl)phenyl)acetamide] | 0.1 to 0.5 | a (a: selectivity ≥ 100 fold) |
| COc1cc(NC(=O)Cc2c(Cl)cc(C(F)(F)F)cc2Cl)ccc1-c1nn2c(C)ncc2o1 [Example 32, 2-(2,6-dichloro-4-(trifluoromethyl)phenyl)-N-(3-methoxy-4-(5-methylimidazo[5,1-b][1,3,4]oxadiazol-2-yl)phenyl) acetamide] | 0.1 to 0.5 | a (a: selectivity ≥ 100 fold) |
| COc1cc(NC(=O)Cc2cccc(Cl)c2)ccc1-c1nn2c(C)ncc2o1 [Example 33, 2-(3-chlorophenyl)-N-(3-methoxy-4-(5-methylimidazo[5,1-b] [1,3,4]oxadiazol-2-yl)phenyl)acetamide] | 0.5 to 1 | b (b: 100 fold > selectivity ≥ 50 fold) |
| COc1cc(NC(=O)Cc2ccc(OC(F)(F)F)cc2)ccc1-c1nn2c(C)ncc2o1 [Example 34, N-(3-methoxy-4-(5-methylimidazo[5,1-b][1,3,4]oxadiazol-2-yl)phenyl)-2-(4-(trifluoromethoxy)phenyl)acetamide] | 0.5 to 1 | b (b: 100 fold > selectivity ≥ 50 fold) |
| CCOc1ccc(CC(=O)Nc2ccc(-c3nn4c(C)ncc4o3)c(OC)c2)cc1 [Example 35, 2-(4-ethoxyphenyl)-N-(3-methoxy-4-(5-methylimidazo [5,1-b][1,3,4]oxadiazol-2-yl)phenyl)acetamide] | 0.5 to 1 | b (b: 100 fold > selectivity ≥ 50 fold) |
| COc1cc(NC(=O)Cc2ccccc2)ccc1-c1nn2c(C)ncc2o1 [Example 36, N-(3-methoxy-4-(5-methylimidazo[5,1-b][1,3,4]oxadiazol-2-yl)phenyl)-2-phenylacetamide] | 1 to 2.2 | c (c: 50 fold > selectivity ≥ 10 fold) |
| COc1cc(NC(=O)Cc2ccccc2C(F)(F)F)ccc1-c1nn2c(C)ncc2o1 [Example 37, N-(3-methoxy-4-(5-methylimidazo[5,1-b][1,3,4]oxadiazol-2-yl)phenyl)-2-(2-(trifluoromethyl)phenyl)acetamide] | 1 to 2.2 | c (c: 50 fold > selectivity ≥ 10 fold) |
| Cc1ccc(C)c(CC(=O)Nc2ccc(-c3nn4c(C)ncc4o3)cc2C)c1 [Example 38] | 0.1 to 0.5 | a (a: selectivity ≥ 100 fold) |
| Cc1cc(-c2nn3c(C)ncc3o2)ccc1NC(=O)Cc1ccc(C(F)(F)F)cc1 [Example 39, N-(2-methyl-4-(5-methylimidazo[5,1-b][1,3,4]oxadiazol-2-yl)phenyl)-2-(4-(trifluoromethyl)phenyl)acetamide] | 0.5 to 1 | b (b: 100 fold > selectivity ≥ 50 fold) |
| Cc1cc(-c2nn3c(C)ncc3o2)ccc1NC(=O)Cc1ccccc1C(F)(F)F [Example 40, N-(2-methyl-4-(5-methylimidazo[5,1-b][1,3,4]oxadiazol-2-yl)phenyl)-2-(2-(trifluoromethyl)phenyl)acetamide] | 0.5 to 1 | b (b: 100 fold > selectivity ≥ 50 fold) |
| Cc1cc(-c2nn3c(C)ncc3o2)ccc1NC(=O)Cc1cccc(C(F)(F)F)c1 [Example 41, N-(2-methyl-4-(5-methylimidazo[5,1-b][1,3,4]oxadiazol-2-yl)phenyl)-2-(3-(trifluoromethyl)phenyl)acetamide] | 0.5 to 1 | b (b: 100 fold > selectivity ≥ 50 fold) |
| Cc1cc(-c2nn3c(C)ncc3o2)ccc1NC(=O)Cc1c(Cl)cc(C(F)(F)F)cc1Cl [Example 42, 2-(2,6-dichloro-4-(trifluoromethyl)phenyl)-N-(2-methyl-4-(5-methylimidazo[5,1-b][1,3,4]oxadiazol-2-yl)phenyl)acetamide] | 0.5 to 1 | b (b: 100 fold > selectivity ≥ 50 fold) |
| Cc1cc(-c2nn3c(C)ncc3o2)ccc1NC(=O)Cc1cccc(Cl)c1 [Example 43, 2-(3-chlorophenyl)-N-(2-methyl-4-(5-methylimidazo[5,1-b][1,3,4]oxadiazol-2-yl)phenyl)acetamide] | 1 to 2.2 | c (c: 50 fold > selectivity ≥ 10 fold) |
| Cc1cc(-c2nn3c(C)ncc3o2)ccc1NC(=O)Cc1ccc(Cl)cc1 [Example 44, 2-(4-chlorophenyl)-N-(2-methyl-4-(5-methylimidazo[5,1-b][1,3,4]oxadiazol-2-yl)phenyl)acetamide] | 0.5 to 1 | b (b: 100 fold > selectivity ≥ 50 fold) |
| Cc1cc(-c2nn3c(C)ncc3o2)ccc1NC(=O)Cc1ccc(OC(F)(F)F)cc1 [Example 45, N-(2-methyl-4-(5-methylimidazo[5,1-b][1,3,4]oxadiazol-2-yl)phenyl)-2-(4-(trifluoromethoxy)phenyl)acetamide] | 0.5 to 1 | b (b: 100 fold > selectivity ≥ 50 fold) |
| Cc1cc(-c2nn3c(C)ncc3o2)ccc1NC(=O)C(C)c1cccc(C(F)(F)F)c1 (centres unmarked) [Example 46, N-(2-methyl-4-(5-methylimidazo[5,1-b][1,3,4]oxadiazol-2-yl)phenyl)-2-(3-(trifluoromethyl)phenyl)propanamide] | 0.5 to 1 | b (b: 100 fold > selectivity ≥ 50 fold) |
| Cc1ncc2oc(-c3ccc(NC(=O)Cc4ccc(Cl)cc4)cc3)nn12 [Example 47, 2-(4-Chloro-phenyl)-N-[4-(5-methyl-imidazo[5,1-b] [1,2,4]oxadiazol-2-yl)-phenyl]-acetamide] | 0.5 to 1 | c (c: 50 fold > selectivity ≥ 10 fold) |
| Cc1ncc2oc(-c3ccc(NC(=O)Cc4ccc(C(F)(F)F)cc4)cc3)nn12 [Example 48, N-[4-(5-Methyl-imidazo[5,1-b][1,2,4]oxadiazol-2-yl)-phenyl]-2-(4-trifluoromethyl-phenyl)-acetamide] | 1 to 2.2 | c (c: 50 fold > selectivity ≥ 10 fold) |
| Cc1ncc2oc(-c3ccc(NC(=O)Cc4ccc(C#N)cc4)cc3)nn12 [Example 49, 2-(4-Cyano-phenyl)-N-[4-(5-methyl-imidazo[5,1-b] [1,2,4]oxadiazol-2-yl)-phenyl]-acetamide] | 1 to 2.2 | c (c: 50 fold > selectivity ≥ 10 fold) |
| Cc1ccc(C)c(CC(=O)Nc2ccc(-c3nn4c(C)ncc4o3)cc2)c1 [Example 50] | 0.5 to 1 | c (c: 50 fold > selectivity ≥ 10 fold) |
| Cc1cc(C)cc(CC(=O)Nc2ccc(-c3nn4c(C)ncc4o3)cc2)c1 [Example 51, 2-(3,5-Dimethyl-phenyl)-N-[4-(5-methyl-imidazo[5,1-b][1,2,4]oxadiazol-2-yl)-phenyl]-acetamide] | 0.5 to 1 | c (c: 50 fold > selectivity ≥ 10 fold) |
